Assay results reported in patent US8921642B2, “Conditional-stop dimerizable caspase transgenic animals” (Massachusetts Eye and Ear Infirmary, priority 2008, dated 2014).

Columns and labels:
[1] = test system: beta cells of the pancreas; assay: in vivo beta cell ablation in Ins-Cre double transgenic mice (IPGTT, GTT); parameters: species or system mouse
Procedure: Diabetes is cause by loss of insulin producing beta cells in the pancreas. These cells cannot be replaced by known techniques. A model for impaired glucose tolerance was constructed by crossing the transgenic mouse (line B) described herein with an Ins-Cre mouse (Jackson Labs). […] This model has the characteristics of a pre-diabetic mouse.
The FK506 analogue AP20187 was administered by intraperitoneal (IP) injection. β-cell death was monitored in the animals by intraperitoneal glucose tolerance testing (IPGTT) using standard methodology.
The effect on blood glucose levels was also evaluated using a standard glucose tolerance test (GTT). 30 minutes after a glucose challenge, a blood sample was obtained from the tail vein and a measurement of blood glucose was obtained with a glucose monitor.

[2] = test system: cells cotransfected with pCAN-Cre and pCMVflox (dimerizable caspase); assay: MTT assay of cell viability after dimerizer treatment of transfected cells; type: cell-based; details: treated 24 hours after transfection, read 48 hours later; only in the group where both Cre-recombinase and transgene were transfected
Procedure: To confirm that the system works, the effect of the dimerizer, AP20187, was examined in vitro on cells that were transfected with either pCAN-Cre or pCMVflox, or cotransfected with both. 24 hours after transfection, cells were treated with the dimerizer AP20187, and 48 hours later cell-viability/dying cells were examined using a standard MTT (3-(4,5-dimethylthiazol-2-yl)-2,5-diphenyltetrazolium bromide) assay.

[3] = test system: inner and outer hair cells; assay: organ of Corti explant culture of double transgenics in medium containing AP20187; type: cell-based, mouse; details: within 24 hours of incubation
native FKBPs = native FKBPs (Homo sapiens, UniProt P62942); details: cited from earlier work
native FKBPs, sequence (P62942 whole entry): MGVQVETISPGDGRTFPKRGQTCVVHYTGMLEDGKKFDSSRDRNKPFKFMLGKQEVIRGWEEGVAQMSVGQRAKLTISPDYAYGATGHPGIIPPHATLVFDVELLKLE

[4] = test system: cells co-transfected with Cre and dimerizable caspase-3 transgene; assay: LIVE/DEAD analysis of co-transfected cells versus original pSHMFv2Caspase3E; type: cell-based; details: LIVE/DEAD analysis in the presence of AP20187
Source text: To determine the extent of cell ablation, the co-transfected cells were compared with the original pSHMFv2Caspase3E in the presence of AP20187 using LIVE/DEAD analysis (Invitrogen). The number of dying cells and the decrease in cell viability was almost same in the co-transfected group as compared to the original plasmid transfection group (FIGS. 6B-6C).

[5] = target: FKBPs with a single amino acid substitution: Phe36Val (Homo sapiens, UniProt P62942, F37V); details: cited from earlier work
FKBPs with a single amino acid substitution: Phe36Val, sequence (P62942 2-108 F37V limits assumed): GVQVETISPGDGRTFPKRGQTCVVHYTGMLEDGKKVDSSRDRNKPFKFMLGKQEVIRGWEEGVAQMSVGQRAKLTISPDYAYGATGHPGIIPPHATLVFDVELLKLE

auditory hair cells = assay: in vivo hair cell ablation and hearing loss in Brn3c-Cre double transgenic mice; parameters: species or system mouse
Source text: Auditory hair cells are the mechanosensory channel that transduce sound waves to action potentials. Since mammalian hair cells cannot spontaneously regenerate once lost, regenerative medicine for hearing loss would be of great importance, and it has been difficult to establish a reproducible model for ablation of hair cells. The transgenic mice described herein (line D) were mated with a hair cell-specific, Brn3c-Cre mouse from Doug Vetter (Xiang et al., Proc. Natl. Acad. Sci. U.S.A. 94(17):9445-50 (1997); Sage et al., Proc. Nat. Acad. Sci. 103(19):7345-7350 (2006)).
In vivo experiments were also performed. Animals at 6-8 weeks of age were administered AP20187 (10 mg/kg ip) and analyzed six days later. […] Approximately 35˜40% of inner hair cells and 15% of outer hair cells were lost, as judged by Pv3 staining.

[6] = test system: Rosa26-CreER (Cre recombinase); assay: tamoxifen-induced Cre recombination in cells from Rosa26-CreER double transgenic mice; type: cell-based, mouse; details: cells from line F x Rosa26-CreER double transgenic mice, in the presence of tamoxifen
Source text: To provide a model for ready confirmation of the function of the conditional-stop dimerizable caspase transgene, the transgenic mice described herein (line F) were crossed with Rosa26-CreER mice. In vitro experiments on cells from the mice were contacted with tamoxifen to induce expression of the Cre recombinase, and the results, shown in FIG. 13, indicate successful recombination and expression of the transgene.

[7] = 10 mg/kg ip, six days later, treated animals
[8] = immunohistochemistry after AP20187 administration

SMILES	blood glucose levels in glucose tolerance test (GTT) ([1]; 30 minutes after a glucose challenge, tail vein blood)	glucose control by intraperitoneal glucose tolerance testing (IPGTT) ([1]; IP injection, Ins-Cre double transgenic animals, more pronounced in females than in males)	cell viability by MTT assay [2]	inner hair cell loss [3]	outer hair cell loss [3]	binding to the native FKBPs (native FKBPs)	number of dying cells and decrease in cell viability, co-transfected group compared to original plasmid transfection group [4]	binding to FKBPs with Phe36Val substitution [5]	decrease in the amplitude of the auditory brainstem response (ABR) (auditory hair cells; 10 mg/kg ip, analyzed six days later, compared with same-animal measurements before treatment)	inner hair cells lost after drug treatment (auditory hair cells; 10 mg/kg ip, six days later)	ISO-DP (threshold required to obtain a given level of response) (auditory hair cells; [7])	distortion product otoacoustic emissions (DPOAE) (auditory hair cells; [7])	changes in the spiral ganglion (auditory hair cells; [8])	inner hair cells lost, as judged by Pv3 staining (auditory hair cells; [8])	outer hair cells lost, as judged by Pv3 staining (auditory hair cells; [8])	recombination of the transgene (PCR product on gel) [6]
CC[C@H](C(=O)N1CCCC[C@H]1C(=O)O[C@H](CCc1ccc(OC)c(OC)c1)c1cccc(OCC(=O)NCC(CNC(=O)COc2cccc([C@@H](CCc3ccc(OC)c(OC)c3)OC(=O)[C@@H]3CCCCN3C(=O)[C@@H](CC)c3cc(OC)c(OC)c(OC)c3)c2)CN(C)C)c1)c1cc(OC)c(OC)c(OC)c1 [AP20187]	significant increased	partial loss of glucose control	significantly reduced	38.8%	32.4%	do not bind	almost same	bind with high affinity	60%	37.8%	significantly increased	significantly decreased	No remarkable changes	35˜40%	~15%	–
CC/C(=C(\c1ccccc1)c1ccc(OCCN(C)C)cc1)c1ccccc1 [tamoxifen]	–	–	–	–	–	–	–	–	–	–	–	–	–	–	–	recombined product at 200 bp is present
